Reference: patent publication US12194007B2, “Pharmaceutical composition for preventing or treating cancer, comprising gossypol, phenformin, and anticancer agent” (National Cancer Center, priority 2018, dated 2025)

Key:
[1] = tested on: BT549 cell line or MB231 cell line; assay: SRB cell proliferation assay, breast cancer cell lines; type: cell-based
[2] = tested on: PC3 cell line or DU145 cell line; assay: SRB cell proliferation assay, prostate cancer cell lines; type: cell-based; details: gossypol 5 μM, phenformin 100 μM, doxorubicin 1 nM, single, double or triple (Table 19, FIG. 7A)
[3] = tested on: PC3 cells xenograft tumor; assay: Prostate cancer mouse model, tumor growth; type: in vivo, Balb/c-nu mice; details: gossypol 80 mg/kg, phenformin 100 mg/kg, doxorubicin 5 mg/kg, single, double or triple (Table 28, FIGS. 13A, 13B)

COc1cccc2c1C(=O)c1c(O)c3c(c(O)c1C2=O)C[C@@](O)(C(=O)CO)C[C@@H]3O[C@H]1C[C@H](N)[C@H](O)[C@H](C)O1 [doxorubicin]
synergistic effect of anticancer action when mixed with gossypol and phenformin ([1]; breast cancer, named agent + gossypol 5 μM + phenformin 100 μM (Tables 13-15)): not exhibited
effect of inhibiting cell proliferation in the triple drug treatment group ([1]; cisplatin 1 μM or doxorubicin 1 μM mixed with gossypol 5 μM and phenformin 100 μM (Tables 14-15, FIGS. 5B, 5C)): level similar to that of the double drug treatment group
degree of cell proliferation with respect to the untreated control [2]: proliferation of cancer cells could be inhibited at a significant level
tumor growth level [3]: significantly inhibited tumor growth compared to the solvent control group
